Values quoted from earlier work, collected in patent US20200046643A1, “EXTENDED RELEASE FORMULATIONS OF CANNABINOIDS” (Glatt GmbH, priority 2018, published 2020).

Assays:
[1] = after oral administration

CCCCCc1cc(O)c2c(c1)OC(C)(C)[C@@H]1CCC(C)=C[C@@H]21 [dronabinol]
solubility in water: insoluble in water

CCCCCc1cc(O)c2c(c1)OC(C)(C)[C@@H]1CCC(C)=C[C@@H]21 [THC, Δ9-tetrahydrocannabinol]
duration of action [1]: 2 to 4 h
duration of appetite-increasing action [1]: up to 24 hours
duration of psychoactive action [1]: 4 to 6 h

C=C(C)[C@@H]1CCC(C)=C[C@H]1c1c(O)cc(CCCCC)cc1O [CBD, cannabidiol]
solubility in organic solvents (organic solvents): soluble in organic solvents
solubility in water: insoluble in water
